Type in all cases: biochemical
The target in test [1] is c-Mer (Homo sapiens (Human), UniProt Q12866). The experiment in a line: TAM Enzymatic Assay (HTRF), Mer. To be noted: 60 min, room temperature. In short, it runs like this: (§1)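 Reactions ran 60 min at room temperature, protected from light, started by substrate addition to enzyme plus DMSO compound, in pH 7.5 HEPES buffer with 10 mM MgCl2, 1 mM EGTA, 0.01% NP-40, 2 mM DTT.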
(In general: Time-resolved FRET reads energy transfer from a long-lived donor to a nearby acceptor.)

Test [2] deals with phosphor-Axl (Homo sapiens (Human), UniProt P30530). Put plainly: TAM Enzymatic Assay (HTRF), Axl. To be noted: recombinant autophosphorylated Axl, 60 min, room temperature.
Chain of phosphor-Axl (P30530 26-894): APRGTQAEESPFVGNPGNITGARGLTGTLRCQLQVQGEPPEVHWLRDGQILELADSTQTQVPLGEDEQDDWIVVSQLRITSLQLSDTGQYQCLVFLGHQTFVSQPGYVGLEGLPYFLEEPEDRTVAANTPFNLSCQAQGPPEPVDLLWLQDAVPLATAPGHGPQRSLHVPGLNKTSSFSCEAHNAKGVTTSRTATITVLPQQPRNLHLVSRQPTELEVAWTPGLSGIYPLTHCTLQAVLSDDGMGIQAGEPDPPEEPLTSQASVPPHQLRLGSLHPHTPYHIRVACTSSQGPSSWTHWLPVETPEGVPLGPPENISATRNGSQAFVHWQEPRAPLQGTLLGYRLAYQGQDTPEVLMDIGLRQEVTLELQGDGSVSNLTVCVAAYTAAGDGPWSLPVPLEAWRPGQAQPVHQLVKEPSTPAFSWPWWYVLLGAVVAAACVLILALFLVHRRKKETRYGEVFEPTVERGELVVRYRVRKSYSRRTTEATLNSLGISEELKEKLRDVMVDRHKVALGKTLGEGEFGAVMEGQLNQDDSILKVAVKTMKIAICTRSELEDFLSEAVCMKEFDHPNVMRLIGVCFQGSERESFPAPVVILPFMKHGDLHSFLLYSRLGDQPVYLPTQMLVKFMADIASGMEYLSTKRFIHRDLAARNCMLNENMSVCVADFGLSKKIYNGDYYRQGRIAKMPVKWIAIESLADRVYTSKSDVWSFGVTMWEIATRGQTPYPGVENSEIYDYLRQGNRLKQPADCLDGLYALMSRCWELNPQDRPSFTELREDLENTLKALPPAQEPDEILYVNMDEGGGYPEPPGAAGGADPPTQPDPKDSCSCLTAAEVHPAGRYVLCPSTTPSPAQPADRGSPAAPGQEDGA
The target in test [3] is Tyro3 (Homo sapiens (Human), UniProt Q06418). The experiment in a line: TAM Enzymatic Assay (HTRF), Tyro3. The note with it: Tyro3, 60 min, room temperature. In short, it runs like this:
as §1

pIC50: −log10 of the molar value. A value given as a limit tells only on which side of the number the result lay.

Chain of c-Mer (Q12866 21-999): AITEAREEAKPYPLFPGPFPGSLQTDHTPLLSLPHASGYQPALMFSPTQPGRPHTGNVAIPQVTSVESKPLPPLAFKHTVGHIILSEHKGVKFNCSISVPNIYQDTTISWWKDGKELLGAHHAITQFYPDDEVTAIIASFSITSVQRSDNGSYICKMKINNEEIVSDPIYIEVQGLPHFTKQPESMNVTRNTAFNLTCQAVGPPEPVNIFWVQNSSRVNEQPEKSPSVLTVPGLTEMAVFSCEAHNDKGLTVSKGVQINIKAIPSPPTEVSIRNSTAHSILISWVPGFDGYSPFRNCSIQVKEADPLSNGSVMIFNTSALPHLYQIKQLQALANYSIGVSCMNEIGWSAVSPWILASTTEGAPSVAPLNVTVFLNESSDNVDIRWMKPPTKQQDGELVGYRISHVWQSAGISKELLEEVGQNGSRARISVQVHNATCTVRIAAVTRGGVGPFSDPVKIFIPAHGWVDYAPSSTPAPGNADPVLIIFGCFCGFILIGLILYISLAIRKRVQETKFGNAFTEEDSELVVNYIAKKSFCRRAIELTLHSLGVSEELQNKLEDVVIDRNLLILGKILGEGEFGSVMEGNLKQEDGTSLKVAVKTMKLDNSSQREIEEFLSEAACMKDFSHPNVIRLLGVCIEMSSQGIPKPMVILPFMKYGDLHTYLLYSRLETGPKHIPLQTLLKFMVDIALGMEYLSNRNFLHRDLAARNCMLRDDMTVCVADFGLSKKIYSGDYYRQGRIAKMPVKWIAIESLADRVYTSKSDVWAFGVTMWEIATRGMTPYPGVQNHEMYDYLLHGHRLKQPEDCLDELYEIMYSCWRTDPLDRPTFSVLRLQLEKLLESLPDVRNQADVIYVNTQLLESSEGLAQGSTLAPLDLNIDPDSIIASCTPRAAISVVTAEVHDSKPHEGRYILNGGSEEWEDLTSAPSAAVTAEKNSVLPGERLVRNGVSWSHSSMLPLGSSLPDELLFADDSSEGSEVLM
Chain of Tyro3 (Q06418 41-890): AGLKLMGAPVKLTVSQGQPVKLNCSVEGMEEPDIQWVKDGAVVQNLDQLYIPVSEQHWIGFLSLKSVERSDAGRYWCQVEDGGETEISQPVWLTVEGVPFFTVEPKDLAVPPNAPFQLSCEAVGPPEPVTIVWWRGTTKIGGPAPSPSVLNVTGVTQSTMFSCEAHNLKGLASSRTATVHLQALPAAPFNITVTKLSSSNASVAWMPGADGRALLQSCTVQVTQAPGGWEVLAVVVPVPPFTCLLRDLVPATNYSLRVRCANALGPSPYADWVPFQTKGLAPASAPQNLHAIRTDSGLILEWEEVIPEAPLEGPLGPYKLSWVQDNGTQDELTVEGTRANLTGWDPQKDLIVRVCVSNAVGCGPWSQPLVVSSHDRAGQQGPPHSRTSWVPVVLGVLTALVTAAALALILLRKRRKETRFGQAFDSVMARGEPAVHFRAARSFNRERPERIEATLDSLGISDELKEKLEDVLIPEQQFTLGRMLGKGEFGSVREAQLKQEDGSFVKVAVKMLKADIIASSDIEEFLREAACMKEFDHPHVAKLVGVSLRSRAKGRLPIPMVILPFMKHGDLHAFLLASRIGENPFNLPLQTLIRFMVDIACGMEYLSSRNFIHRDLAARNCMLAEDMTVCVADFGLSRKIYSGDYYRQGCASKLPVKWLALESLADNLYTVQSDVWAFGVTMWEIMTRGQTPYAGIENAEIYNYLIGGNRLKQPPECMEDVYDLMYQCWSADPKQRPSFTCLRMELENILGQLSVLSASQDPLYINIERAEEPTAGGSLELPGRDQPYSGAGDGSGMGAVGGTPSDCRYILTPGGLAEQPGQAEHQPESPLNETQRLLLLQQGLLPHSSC

Turning to `Cc1c(Br)cc(C(=O)Nc2ccc(-c3cc(C4CCN(C(=O)C(C)C)CC4)n4ncnc(N)c34)cc2)c(=O)n1-c1cncc(F)c1` [Example 101, N-(4-(4-Amino-7-(1-isobutyrylpiperidin-4-yl)pyrrolo[1,2-f][1,2,4]triazin-5-yl)phenyl)-5-bromo-1-(5-fluoropyridin-3-yl)-6-methyl-2-oxo-1,2-dihydropyridine-3-carboxamide], the values for the pIC50 in test [1], in test [2] and in test [3] were at least 8.30, at least 8.30 and below 7.00, respectively.
Turning to `Nc1ncnn2c(C3CCNCC3)cc(-c3ccc(NC(=O)c4cccn(-c5ccccc5)c4=O)cc3)c12` [Example 32, N-[4-(4-Amino-7-piperidin-4-ylpyrrolo[2,1-f][1,2,4]triazin-5-yl)phenyl]-2-oxo-1-phenyl-1,2-dihydropyridine-3-carboxamide], the values for the pIC50 in test [1], in test [2] and in test [3] were at least 8.30, at least 8.30 and 7.00 to 8.00, respectively.
As for `COCCN1CCC(c2cc(-c3ccc(NC(=O)c4cccn(-c5ccccc5)c4=O)cc3F)c3c(N)ncnn23)CC1` [Example 50, N-(4-{4-Amino-7-[1-(2-methoxyethyl)piperidin-4-yl]pyrrolo[2,1-f][1,2,4]triazin-5-yl}-3-fluorophenyl)-2-oxo-1-phenyl-1,2-dihydropyridine-3-carboxamide], the values for the pIC50 in test [1], in test [2] and in test [3] were at least 8.30, at least 8.30 and 7.00 to 8.00, respectively.
Take `Nc1ncnn2c(C3CCOCC3)cc(-c3ccc(NC(=O)c4cccn(-c5ccc(F)cc5)c4=O)cc3F)c12` [Example 16, N-{4-[4-Amino-7-(tetrahydro-2H-pyran-4-yl)pyrrolo[2,1-f][1,2,4]triazin-5-yl]-3-fluorophenyl}-1-(4-fluorophenyl)-2-oxo-1,2-dihydropyridine-3-carboxamide]: the negative-log IC50 (pIC50) in test [1] is at least 8.30; in test [2], at least 8.30; in test [3], 7.00 to 8.00.
Take `CS(=O)(=O)N1CCC(c2cc(-c3ccc(NC(=O)c4cccn(-c5ccc(F)cc5)c4=O)cc3)c3c(N)ncnn23)CC1` [Example 41, N-(4-{4-Amino-7-[1-(methylsulfonyl)piperidin-4-yl]pyrrolo[2,1-f][1,2,4]triazin-5-yl}phenyl)-1-(4-fluorophenyl)-2-oxo-1,2-dihydropyridine-3-carboxamide]: the pIC50 in test [1] was at least 8.30; in test [2], at least 8.30; in test [3], 7.00 to 8.00.
On to `CC(C)C(=O)N1CCC(c2cc(-c3ccc(NC(=O)c4cc5c(n(-c6cncc(F)c6)c4=O)CCCC5=O)cc3)c3c(N)ncnn23)CC1` [Example 113, N-(4-(4-Amino-7-(1-isobutyrylpiperidin-4-yl)pyrrolo[1,2-f][1,2,4]triazin-5-yl)phenyl)-1-(5-fluoropyridin-3-yl)-2,5-dioxo-1,2,5,6,7,8-hexahydroquinoline-3-carboxamide], for which the negative logarithm of the IC50 (pIC50) in test [1] was at least 8.30; in test [2], at least 8.30; in test [3], 7.00 to 8.00.
Turning to `CC(C)n1cc(C(=O)Nc2ccc(-c3cc(C4CCN(CC(=O)N(C)C)CC4)n4ncnc(N)c34)cc2)c(=O)n(-c2ccccc2)c1=O` [Example 81, N-(4-(4-Amino-7-(1-(2-(dimethylamino)-2-oxoethyl)piperidin-4-yl)pyrrolo[1,2-f][1,2,4]triazin-5-yl)phenyl)-1-isopropyl-2,4-dioxo-3-phenyl-1,2,3,4-tetrahydropyrimidine-5-carboxamide], the values for the pIC50 in test [1], in test [2] and in test [3] were at least 8.30, at least 8.30 and 7.00 to 8.00, respectively.
Turning to `CN(C)C(=O)N1CCC(c2cc(-c3ccc(NC(=O)c4cccn(-c5ccccc5)c4=O)cc3)c3c(N)ncnn23)CC1` [Example 44, N-[4-(4-Amino-7-{1-[(dimethylamino)carbonyl]piperidin-4-yl}pyrrolo[2,1-f][1,2,4]triazin-5-yl)phenyl]-2-oxo-1-phenyl-1,2-dihydropyridine-3-carboxamide], the pIC50 in test [1] is at least 8.30; in test [2] it was at least 8.30; in test [3], below 7.00.
Consider `CCn1cc(C(=O)Nc2ccc(-c3cc(C4CCN(C(=O)N(C)C)CC4)n4ncnc(N)c34)cc2)c(=O)n(-c2ccc(F)cc2)c1=O` [Example 67, N-(4-(4-Amino-7-(1-(dimethylcarbamoyl)piperidin-4-yl)pyrrolo[1,2-f][1,2,4]triazin-5-yl)phenyl)-1-ethyl-3-(4-fluorophenyl)-2,4-dioxo-1,2,3,4-tetrahydropyrimidine-5-carboxamide], for which the results for the pIC50 in test [1], in test [2] and in test [3] were at least 8.30, at least 8.30 and below 7.00, respectively.
As to `N#C[C@H]1CC[C@@H](c2cc(-c3ccc(NC(=O)c4cccn(-c5ccc(F)cc5)c4=O)cc3)c3c(N)ncnn32)CC1` [Example 29, N-{4-[4-Amino-7-(cis-4-cyanocyclohexyl)pyrrolo[2,1-f][1,2,4]triazin-5-yl]phenyl}-1-(4-fluorophenyl)-2-oxo-1,2-dihydropyridine-3-carboxamide], the pIC50 in test [1] was at least 8.30; in test [2] it was at least 8.30; in test [3] it was 7.00 to 8.00.
Turning to `CC(C)n1cc(C(=O)Nc2ccc(-c3cc(C4CCN(C(=O)N(C)C)CC4)n4ncnc(N)c34)cc2)c(=O)n(-c2ccccc2)c1=O` [Example 61, N-(4-(4-Amino-7-(1-(dimethylcarbamoyl)piperidin-4-yl)pyrrolo[1,2-f][1,2,4]triazin-5-yl)phenyl)-1-isopropyl-2,4-dioxo-3-phenyl-1,2,3,4-tetrahydropyrimidine-5-carboxamide], the pIC50 in test [1] is at least 8.30; in test [2], at least 8.30; in test [3], 7.00 to 8.00.
On to `CC(C)C(=O)N1CCC(c2cc(-c3ccc(NC(=O)c4cn(C(C)C)c(=O)n(-c5ccccn5)c4=O)cc3)c3c(N)ncnn23)CC1` [Example 83, N-(4-(4-Amino-7-(1-isobutyrylpiperidin-4-yl)pyrrolo[1,2-f][1,2,4]triazin-5-yl)phenyl)-1-isopropyl-2,4-dioxo-3-(pyridin-2-yl)-1,2,3,4-tetrahydropyrimidine-5-carboxamide], for which the negative logarithm of the IC50 (pIC50) in test [1] is at least 8.30; in test [2], at least 8.30; in test [3] it was 7.00 to 8.00.
As to `CN1CCC(c2cc(-c3ccc(NC(=O)c4cccn(-c5ccccc5)c4=O)cc3F)c3c(N)ncnn23)CC1` [Example 22, N-{4-[4-Amino-7-(1-methylpiperidin-4-yl)pyrrolo[2,1-f][1,2,4]triazin-5-yl]-3-fluorophenyl}-2-oxo-1-phenyl-1,2-dihydropyridine-3-carboxamide], the pIC50 in test [1] is at least 8.30; in test [2], at least 8.30; in test [3] it was 7.00 to 8.00.
In the case of `CN(C)C(=O)N1CCC(c2cc(-c3ccc(NC(=O)c4cccn(-c5ccc(F)cc5)c4=O)cc3)c3c(N)ncnn23)CC1` [Example 45, N-[4-(4-Amino-7-{1-[(dimethylamino)carbonyl]piperidin-4-yl}pyrrolo[2,1-f][1,2,4]triazin-5-yl)phenyl]-1-(4-fluorophenyl)-2-oxo-1,2-dihydropyridine-3-carboxamide], the pIC50 in test [1] was at least 8.30; in test [2], at least 8.30; in test [3], 7.00 to 8.00.
Regarding `Cc1c(-c2ccn(C)n2)cc(C(=O)Nc2ccc(-c3cc(C4CCN(C(=O)C(C)C)CC4)n4ncnc(N)c34)cc2)c(=O)n1-c1ccccn1` [Example 125, N-(4-(4-Amino-7-(1-isobutyrylpiperidin-4-yl)pyrrolo[2,1-f][1,2,4]triazin-5-yl)phenyl)-6-methyl-5-(1-methyl-1H-pyrazol-3-yl)-2-oxo-2H-[1,2′-bipyridine]-3-carboxamide], the pIC50 was at least 8.30 in test [1], at least 8.30 in test [2] and below 7.00 in test [3].
As to `COCc1c(Br)cc(C(=O)Nc2ccc(-c3cc(C4CCN(C(=O)C(C)C)CC4)n4ncnc(N)c34)cc2)c(=O)n1-c1ccccc1` [Example 136, N-(4-(4-Amino-7-(1-isobutyrylpiperidin-4-yl)pyrrolo[2,1-f][1,2,4]triazin-5-yl)phenyl)-5-bromo-6-(methoxymethyl)-2-oxo-1-phenyl-1,2-dihydropyridine-3-carboxamide], the pIC50 was at least 8.30 in test [1], at least 8.30 in test [2] and below 7.00 in test [3].
Regarding `Nc1ncnn2c(C3CCN(CCO)CC3)cc(-c3ccc(NC(=O)c4cccn(-c5ccccc5)c4=O)cc3)c12` [Example 52, N-(4-{4-Amino-7-[1-(2-hydroxyethyl)piperidin-4-yl]pyrrolo[2,1-f][1,2,4]triazin-5-yl}phenyl)-2-oxo-1-phenyl-1,2-dihydropyridine-3-carboxamide], the negative logarithm of the IC50 (pIC50) in test [1] is at least 8.30; in test [2], at least 8.30; in test [3] it was 7.00 to 8.00.
As to `Cc1cc(C(=O)Nc2ccc(-c3cc(C4CCN(C(=O)C(C)C)CC4)n4ncnc(N)c34)cc2)c(=O)n(-c2cncc(F)c2)c1C` [Example 121, N-(4-(4-Amino-7-(1-isobutyrylpiperidin-4-yl)pyrrolo[2,1-f][1,2,4]triazin-5-yl)phenyl)-5′-fluoro-5,6-dimethyl-2-oxo-2H-[1,3′-bipyridine]-3-carboxamide], the negative logarithm of the IC50 (pIC50) is at least 8.30 in test [1], at least 8.30 in test [2] and below 7.00 in test [3].
In the case of `CC(C)C(=O)N1CCC(c2cc(-c3ccc(NC(=O)c4cn(C5CC5)c(=O)n(-c5ccccc5)c4=O)cc3)c3c(N)ncnn23)CC1` [Example 139, N-(4-(4-Amino-7-(1-isobutyrylpiperidin-4-yl)pyrrolo[2,1-f][1,2,4]triazin-5-yl)phenyl)-1-cyclopropyl-2,4-dioxo-3-phenyl-1,2,3,4-tetrahydropyrimidine-5-carboxamide], the negative logarithm of the IC50 (pIC50) was at least 8.30 in test [1], at least 8.30 in test [2] and below 7.00 in test [3].
For `Cc1c(Br)cc(C(=O)Nc2ccc(-c3cc(C4CCN(C(=O)C(C)C)CC4)n4ncnc(N)c34)cc2)c(=O)n1-c1ccccn1` [Example 118, N-(4-(4-Amino-7-(1-isobutyrylpiperidin-4-yl)pyrrolo[2,1-f][1,2,4]triazin-5-yl)phenyl)-5-bromo-6-methyl-2-oxo-2H-[1,2′-bipyridine]-3-carboxamide], the negative logarithm of the IC50 (pIC50) is at least 8.30 in test [1], at least 8.30 in test [2] and below 7.00 in test [3].

Broadly, the pIC50 is the IC50 on a negative log10 scale, so that one unit is a factor of ten.

The values are drawn from patent US9981975B2, “Pyrrolotriazine compounds as tam inhibitors” (Incyte Corporation, priority 2016, dated 2018).
